US10519152B2, “Compounds and their use in treating cancer” (AstraZeneca AB, priority 2017, dated 2019)

How the values were obtained:
[1] = target: T1, Estrogen Receptor (ERα) in MCF-7 human ductal carcinoma breast cell line (Homo sapiens, UniProt P03372); assay: MCF-7 ER degradation assay (cell based immuno-fluorescence); details: MCF-7 cells; for DC50: 18-22 hours incubation, 50% reduction of ERα expression, single experiment or average of two or more, read-out: MCF-7 ER degradation IC50; for ER degradation ≥ 90% at 0.3 μM: ER degradation by fulvestrant at 0.3 μM is defined as 100%
T1 construct: endogenous in cells; host or cells: MCF-7
T1 sequence (P03372 1-595): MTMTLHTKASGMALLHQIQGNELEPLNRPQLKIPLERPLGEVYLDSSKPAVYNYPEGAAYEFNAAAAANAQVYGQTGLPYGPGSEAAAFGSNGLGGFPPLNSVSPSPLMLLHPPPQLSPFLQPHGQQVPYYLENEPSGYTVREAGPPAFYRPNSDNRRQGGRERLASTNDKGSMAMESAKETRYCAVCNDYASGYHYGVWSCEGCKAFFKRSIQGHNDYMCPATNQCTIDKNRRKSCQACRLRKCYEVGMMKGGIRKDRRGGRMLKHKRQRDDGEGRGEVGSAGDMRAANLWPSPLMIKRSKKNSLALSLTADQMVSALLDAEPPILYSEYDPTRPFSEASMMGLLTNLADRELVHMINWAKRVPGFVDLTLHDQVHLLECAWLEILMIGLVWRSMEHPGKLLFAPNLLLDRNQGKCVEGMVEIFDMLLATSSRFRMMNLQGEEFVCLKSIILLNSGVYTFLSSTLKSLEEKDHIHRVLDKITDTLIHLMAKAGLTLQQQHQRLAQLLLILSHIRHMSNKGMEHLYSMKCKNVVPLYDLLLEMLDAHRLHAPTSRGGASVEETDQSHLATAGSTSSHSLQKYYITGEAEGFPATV
In short: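 MCF-7 human ductal carcinoma breast cells were seeded at 3.75×10^4 cells per mL (40 μL per well) in 384 well plates with phenol red free DMEM containing 2 mM L-Glutamine and 5% (v/v) Charcoal/Dextran treated foetal calf serum. After overnight culture, compounds were acoustically dispensed, incubated 18-22 hours, then cells were formaldehyde-fixed and immunostained for ERα.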

[2] = target: T2, recombinant human Estrogen Receptor alpha ligand binding domain, residues 307-554 (ER alpha-LBD (GST)) (Homo sapiens, UniProt P03372); assay: ERα binding assay (LanthaScreen TR-FRET competition); details: TR-FRET competition with Fluormone ES2 tracer, 4 hours at room temperature; single experiment or average of two or more
T2 construct: made in house
T2 sequence (P03372 307-554): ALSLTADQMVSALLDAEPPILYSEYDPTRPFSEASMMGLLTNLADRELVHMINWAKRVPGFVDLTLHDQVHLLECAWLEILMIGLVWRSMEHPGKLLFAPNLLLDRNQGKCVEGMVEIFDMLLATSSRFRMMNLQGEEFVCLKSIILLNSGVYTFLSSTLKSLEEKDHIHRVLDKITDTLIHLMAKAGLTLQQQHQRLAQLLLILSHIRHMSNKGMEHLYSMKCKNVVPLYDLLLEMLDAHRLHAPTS

| Structure (SMILES) | DC50 [1] [nM] | IC50 [2] [nM] | ER degradation ≥ 90% at 0.3 μM [1] |
| --- | --- | --- | --- |
| Cc1ncsc1-c1ccc(CNC(=O)[C@@H]2C[C@@H](O)CN2C(=O)[C@@H](NC(=O)COC2CCN(CCCNC(=O)/C=C/c3cc(F)c([C@@H]4c5[nH]c6ccccc6c5C[C@@H](C)N4CC(C)(C)F)c(F)c3)CC2)C(C)(C)C)cc1 [Example 65, (2S,4R)-1-((S)-2-(2-((1-(3-((E)-3-(3,5-difluoro-4-((1R,3R)-2-(2-fluoro-2-methylpropyl)-3-methyl-2,3,4,9-tetrahydro-1H-pyrido[3,4-b]indol-1-yl)phenyl)acrylamido)propyl)piperidin-4-yl)oxy)acetamido)-3,3-dimethylbutanoyl)-4-hydroxy-N-(4-(4-methylthiazol-5-yl)benzyl)pyrrolidine-2-carboxamide, Trifluoroacetic Acid] | 4.5 | 1.1 |  |
| Cc1ncsc1-c1ccc(CNC(=O)[C@@H]2C[C@@H](O)CN2C(=O)[C@@H](NC(=O)COCCCCCOc2cc(F)c([C@@H]3c4[nH]c5ccccc5c4C[C@@H](C)N3CC(F)(F)CO)c(F)c2)C(C)(C)C)cc1 [Example 70, (2S,4R)-1-((S)-2-(2-((5-(4-((1R,3R)-2-(2,2-Difluoro-3-hydroxypropyl)-3-methyl-2,3,4,9-tetrahydro-1H-pyrido[3,4-b]indol-1-yl)-3,5-difluorophenoxy)pentyl)oxy)acetamido)-3,3-dimethylbutanoyl)-4-hydroxy-N-(4-(4-methylthiazol-5-yl)benzyl)pyrrolidine-2-carboxamide] | 0.9 | 0.8 |  |
| Cc1ncsc1-c1ccc(CNC(=O)[C@@H]2C[C@@H](O)CN2C(=O)[C@@H](NC(=O)COCCCOCCCOc2cc(F)c([C@@H]3c4[nH]c5ccccc5c4C[C@@H](C)N3CC(C)(C)F)c(F)c2)C(C)(C)C)cc1 [Example 72, (2S,4R)-1-((S)-2-(2-(3-(3-(3,5-Difluoro-4-((1R,3R)-2-(2-fluoro-2-methylpropyl)-3-methyl-2,3,4,9-tetrahydro-1H-pyrido[3,4-b]indol-1-yl)phenoxy)propoxy)propoxy)acetamido)-3,3-dimethylbutanoyl)-4-hydroxy-N-(4-(4-methylthiazol-5-yl)benzyl)pyrrolidine-2-carboxamide] |  | 0.6 | •• |
| Cc1ncsc1-c1ccc(CNC(=O)[C@@H]2C[C@@H](O)CN2C(=O)[C@@H](NC(=O)COCCCc2cccc(COc3cc(F)c([C@@H]4c5[nH]c6ccccc6c5C[C@@H](C)N4CC(C)(C)F)c(F)c3)c2)C(C)(C)C)cc1 [Example 73, (2S,4R)-1-((S)-2-(2-(3-(3-((3,5-Difluoro-4-((1R,3R)-2-(2-fluoro-2-methylpropyl)-3-methyl-2,3,4,9-tetrahydro-1H-pyrido[3,4-b]indol-1-yl)phenoxy)methyl)phenyl)propoxy)acetamido)-3,3-dimethylbutanoyl)-4-hydroxy-N-(4-(4-methylthiazol-5-yl)benzyl)pyrrolidine-2-carboxamide] |  | 1 | •• |
| Cc1ncsc1-c1ccc(CNC(=O)[C@@H]2C[C@@H](O)CN2C(=O)[C@@H](NC(=O)CNCCCCCOc2cc(F)c([C@@H]3c4[nH]c5ccccc5c4C[C@@H](C)N3CC(C)(C)F)c(F)c2)C(C)(C)C)cc1 [Example 89, (2S,4R)-1-((S)-2-(2-((5-(3,5-Difluoro-4-((1R,3R)-2-(2-fluoro-2-methylpropyl)-3-methyl-2,3,4,9-tetrahydro-1H-pyrido[3,4-b]indol-1-yl)phenoxy)pentyl)amino)acetamido)-3,3-dimethylbutanoyl)-4-hydroxy-N-(4-(4-methylthiazol-5-yl)benzyl)pyrrolidine-2-carboxamide] | 0.7 | 0.7 |  |
| Cc1ncsc1-c1ccc(CNC(=O)[C@@H]2C[C@@H](O)CN2C(=O)[C@@H](NC(=O)CN(C)CCCCCOc2cc(F)c(C3c4[nH]c5ccccc5c4C[C@@H](C)N3CC(C)(C)F)c(F)c2)C(C)(C)C)cc1 (stereo partly drawn) [Example 90, (2S,4R)-1-((S)-2-(2-((5-(3,5-Difluoro-4-((1R,3R)-2-(2-fluoro-2-methylpropyl)-3-methyl-2,3,4,9-tetrahydro-1H-pyrido-[3,4-b]indol-1-yl)phenoxy)pentyl)(methyl)amino)acetamido)-3,3-dimethylbutanol)-4-hydroxy-N-(4-(4-methylthiazol-5-yl)benzyl)pyrrolidine-2-carboxamide] | 102 | 1.2 |  |
| Cc1ncsc1-c1ccc(CNC(=O)[C@@H]2C[C@@H](O)CN2C(=O)[C@@H](NC(=O)CCOCCCCOc2cc(F)c([C@@H]3c4[nH]c5ccccc5c4C[C@@H](C)N3CC(C)(C)F)c(F)c2)C(C)(C)C)cc1 [Example 92, (2S,4R)-1-((S)-2-(3-(4-(3,5-difluoro-4-((1R,3R)-2-(2-fluoro-2-methylpropyl)-3-methyl-2,3,4,9-tetrahydro-1H-pyrido[3,4-b]indol-1-yl)phenoxy)butoxy)propanamido)-3,3-dimethylbutanoyl)-4-hydroxy-N-(4-(4-methylthiazol-5-yl)benzyl)pyrrolidine-2-carboxamide] | 0.4 | 0.6 |  |
| Cc1ncsc1-c1ccc(CNC(=O)[C@@H]2C[C@@H](O)CN2C(=O)[C@@H](NC(=O)CCN2CCN(CCCCOc3cc(F)c([C@@H]4c5[nH]c6ccccc6c5C[C@@H](C)N4CC(C)(C)F)c(F)c3)CC2)C(C)(C)C)cc1 [Example 98, (2S,4R)-1-((S)-2-(3-(4-(4-(3,5-Difluoro-4-((1R,3R)-2-(2-fluoro-2-methylpropyl)-3-methyl-2,3,4,9-tetrahydro-1H-pyrido[3,4-b]indol-1-yl)phenoxy)butyl)piperazin-1-yl)propanamido)-3,3-dimethylbutanoyl)-4-hydroxy-N-(4-(4-methylthiazol-5-yl)benzyl)pyrrolidine-2-carboxamide] | 0.4 | 0.6 |  |
| Cc1ncsc1-c1ccc(CNC(=O)[C@@H]2C[C@@H](O)CN2C(=O)[C@@H](NC(=O)CCCCN2CCN(CCOc3cc(F)c([C@@H]4c5[nH]c6ccccc6c5C[C@@H](C)N4CC(C)(C)F)c(F)c3)CC2)C(C)(C)C)cc1 [Example 102, (2S,4R)-1-((S)-2-(5-(4-(2-(3,5-difluoro-4-((1R,3R)-2-(2-fluoro-2-methylpropyl)-3-methyl-2,3,4,9-tetrahydro-1H-pyrido[3,4-b]indol-1-yl)phenoxy)ethyl)piperazin-1-yl)pentanamido)-3,3-dimethylbutanoyl)-4-hydroxy-N-(4-(4-methylthiazol-5-yl)benzyl)pyrrolidine-2-carboxamide] | 0.9 | 0.6 |  |
| Cc1ncsc1-c1ccc([C@H](CN(C)C)NC(=O)[C@@H]2C[C@@H](O)CN2C(=O)[C@@H](NC(=O)COCCOCCOCCOc2cc(F)c([C@@H]3c4[nH]c5ccccc5c4C[C@@H](C)N3CC(C)(C)F)c(F)c2)C(C)(C)C)cc1 [Example 104, (2S,4R)-1-[(2S)-2-[[2-[2-[2-[2-[3,5-Difluoro-4-[(1R,3R)-2-(2-fluoro-2-methyl-propyl)-3-methyl-1,3,4,9-tetrahydropyrido[3,4-b]indol-1-yl]phenoxy]ethoxy]ethoxy]ethoxy]acetyl]amino]-3,3-dimethyl-butanoyl]-N-[(1R)-2-(dimethylamino)-1-[4-(4-methylthiazol-5-yl)phenyl]ethyl]-4-hydroxy-pyrrolidine-2-carboxamide] | 54 | 4.6 |  |
| Cc1ncsc1-c1ccc(CNC(=O)[C@@H]2C[C@@H](O)CN2C(=O)[C@@H](NC(=O)CCCCN(C)CCN(C)CCOc2cc(F)c([C@@H]3c4[nH]c5ccccc5c4C[C@@H](C)N3CC(C)(C)F)c(F)c2)C(C)(C)C)cc1 [Example 108, (2S,4R)-1-((S)-2-(5-((2-((2-(3,5-difluoro-4-((1R,3R)-2-(2-fluoro-2-methylpropyl)-3-methyl-2,3,4,9-tetrahydro-1H-pyrido[3,4-b]indol-1-yl)phenoxy)ethyl)(methyl)amino)ethyl)(methyl)amino)pentanamido)-3,3-dimethylbutanoyl)-4-hydroxy-N-(4-(4-methylthiazol-5-yl)benzyl)pyrrolidine-2-carboxamide] | 1.1 | 0.6 |  |
